In patent publication US6875743B1, “Cell adhesion inhibitors” (Biogen, Inc., priority 1996, dated 2005):
Numbered stars: 1 amine (or outer) side, 2 acyl side, 3 side chain; on linkers, the order of the positions; unused ones are H or OH. Square brackets hold non-standard residues; d marks the D form. Peptide text beside a SMILES is read from it. * marks the point of attachment. X5 = COc1cc(CC(=O)[*:2])ccc1N[*:1]; Hydrocinnamoyl = O=C(CCc1ccccc1)*; X1 = O=C(Cc1ccc(N[*:1])cc1)[*:2]; NH(2-Me-phenyl) = Cc1ccccc1N*; NMeL = CN[CH](CC(C)C)C(=O)O; PhAc = O=C(Cc1ccccc1)*; CO = O=C([*:1])[*:2]; NHPh = c1ccc(N*)cc1; Ahx = NCCCCCC(=O)O

Each compound was assayed against T1, VLA4 (Homo sapiens, UniProt P05556+P13612) (assay: Inhibition of VLA4-dependent adhesion to BSA-CS1). Details: binding of BCECF-labelled Ramos cells to BSA-CS1 coated wells, 2 mM MnCl2; read-out: IC50.
T1 construct: endogenous in cells; host or cells: Ramos cells
T1 sequence (P13612 34-1032): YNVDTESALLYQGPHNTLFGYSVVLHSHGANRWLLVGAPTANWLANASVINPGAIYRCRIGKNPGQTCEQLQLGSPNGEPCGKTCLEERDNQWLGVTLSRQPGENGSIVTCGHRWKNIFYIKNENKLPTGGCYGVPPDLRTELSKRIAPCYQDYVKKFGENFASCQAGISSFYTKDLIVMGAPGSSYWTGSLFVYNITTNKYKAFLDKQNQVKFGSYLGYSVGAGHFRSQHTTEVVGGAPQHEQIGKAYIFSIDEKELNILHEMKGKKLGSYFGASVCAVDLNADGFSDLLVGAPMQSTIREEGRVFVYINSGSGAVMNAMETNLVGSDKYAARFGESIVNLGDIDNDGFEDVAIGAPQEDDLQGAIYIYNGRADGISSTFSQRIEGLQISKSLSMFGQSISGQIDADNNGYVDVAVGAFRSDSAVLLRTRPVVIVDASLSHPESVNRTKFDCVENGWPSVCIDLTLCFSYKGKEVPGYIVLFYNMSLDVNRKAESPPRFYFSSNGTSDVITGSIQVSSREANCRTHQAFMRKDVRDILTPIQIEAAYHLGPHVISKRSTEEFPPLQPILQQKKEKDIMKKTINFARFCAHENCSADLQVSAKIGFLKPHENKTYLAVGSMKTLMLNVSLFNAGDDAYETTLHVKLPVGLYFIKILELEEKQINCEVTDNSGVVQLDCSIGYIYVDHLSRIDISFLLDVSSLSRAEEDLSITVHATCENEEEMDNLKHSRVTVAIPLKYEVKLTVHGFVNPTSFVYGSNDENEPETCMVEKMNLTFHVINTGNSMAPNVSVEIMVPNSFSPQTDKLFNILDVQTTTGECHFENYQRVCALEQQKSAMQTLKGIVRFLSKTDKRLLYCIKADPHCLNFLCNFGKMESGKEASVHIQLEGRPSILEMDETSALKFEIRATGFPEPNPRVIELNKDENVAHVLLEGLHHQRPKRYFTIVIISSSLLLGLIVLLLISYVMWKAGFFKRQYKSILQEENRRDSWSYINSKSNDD
T1 sequence (P05556 21-798): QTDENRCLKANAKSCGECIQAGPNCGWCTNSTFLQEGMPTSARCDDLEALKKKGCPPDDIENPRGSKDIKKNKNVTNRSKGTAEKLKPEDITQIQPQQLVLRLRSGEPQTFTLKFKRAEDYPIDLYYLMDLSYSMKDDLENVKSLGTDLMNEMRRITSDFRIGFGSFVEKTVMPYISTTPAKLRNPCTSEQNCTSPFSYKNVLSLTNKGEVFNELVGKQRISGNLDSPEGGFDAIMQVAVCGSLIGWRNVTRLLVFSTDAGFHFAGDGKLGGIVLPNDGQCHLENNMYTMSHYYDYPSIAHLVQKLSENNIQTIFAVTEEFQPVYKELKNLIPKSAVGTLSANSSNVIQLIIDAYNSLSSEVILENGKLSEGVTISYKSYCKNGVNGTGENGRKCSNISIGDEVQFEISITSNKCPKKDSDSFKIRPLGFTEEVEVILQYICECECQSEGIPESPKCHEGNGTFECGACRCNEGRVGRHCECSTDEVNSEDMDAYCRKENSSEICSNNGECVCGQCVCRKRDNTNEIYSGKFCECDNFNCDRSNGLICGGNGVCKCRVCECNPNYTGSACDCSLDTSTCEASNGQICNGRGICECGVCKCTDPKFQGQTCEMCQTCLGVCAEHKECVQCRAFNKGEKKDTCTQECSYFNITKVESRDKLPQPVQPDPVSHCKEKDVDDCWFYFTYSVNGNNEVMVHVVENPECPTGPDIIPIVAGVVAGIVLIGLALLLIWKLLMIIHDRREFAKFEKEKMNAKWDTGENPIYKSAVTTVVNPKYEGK
Type: cell-based
Source text: For example, the cell adhesion inhibitory activity of these compounds may be measured by determining the concentration of inhibitor required to block the binding of VLA-4-expressing cells to fibronectin- or CS1-coated plates. In this assay microtiter wells are coated with either fibronectin (containing the CS-1 sequence) or CS-1. If CS-1 is used, it must be conjugated to a carrier protein, such as bovine serum albumin, in order to bind to the wells. Once the wells are coated, varying concentrations of the test compound are then added together with appropriately labelled, VLA-4-expressing cells. Alternatively, the test compound may be added first and allowed to incubate with the coated wells prior to the addition of the cells. The cells are allowed to incubate in the wells for at least 30 minutes. Following incubation, the wells are emptied and washed. Inhibition of binding is measured by quantitating the fluorescence or radioactivity bound to the plate for each of the various concentrations of test compound, as well as for controls containing no test compound.
VLA-4-expressing cells that may be utilized in this assay include Ramos cells, Jurkat cells, A375 melanoma cells, as well as human peripheral blood lymophocytes (PBLs). The cells used in this assay may be fluorescently or radioactively labelled.
This assay was used to assess the potency of VLA4-directed inhibitory compounds of this invention.
We dissolved BSA-SMCC (Pierce Chemical, Rockford, Ill.; Catalog #77115) in H2O at a concentration of 10 mg/mL. [SEQ ID NO:4]: […](“Cys-Tyr-CS1 peptide”), which we synthesized by conventional solid phase chemistry and purified by HPLC, was dissolved in 10 mM HEPES pH 5, 50 mM NaCl and 0.1 mM EDTA also at a concentration of 10 mg/mL. We then mixed 500 μL of BSA-SMCC, 250 μL of Cys-Tyr-CS1 peptide and 75 μL of 1 mM HEPES pH 7.5 and allowed the conjugation reaction to proceed for 30 minutes. We stopped the reaction by adding 1 μL of beta-mercaptoethanol. Samples were analyzed for cross-linking by SDS-PAGE.
We coated the wells of a Linbro titertek polystyrene 96-well flat bottom plate (Flow Laboratories, Maclean, Va.; catalog #76-231-05) with 100 μL of the above-described BSA-CS1 solution diluted to 1 μg/mL in 0.05 M NaHCO3 (15 mM NaHCO3, 35 mM Na2CO3) pH 9.2. Some wells were not coated with CS1 in order to assess non-specific cell binding (NSB). The plate was then incubated overnight at 4° C.
Following this incubation, the contents of the wells were removed by inverting and blotting the plate. All of the wells were then blocked with 100 μL of 1% BSA in PBS, 0.02% NaN3, for a minimum of one hour at room temperature.
Ramos cells are grown, maintained and labelled in RPMI 1640 culture medium containing 1% BSA. Just prior to running the assay, we added 2′,7′-bis-(2-carboxyethyl)-5 (and -6) carboxyfluorescein acetoxymethyl ester (“BCECF-AM”; Molecular Probes Inc., Eugene, Oreg.; catalog #B-1150) to a final concentration of 2 μM to a culture of Ramos cells (4×10^6 cells/mL). We incubated the cells for 20 minutes at 37° C.
Following labelling, the cells were washed twice in assay buffer (24 mM TRIS, 137 mM NaCl, 2.7 mM KCl, pH 7.4, containing 0.1% BSA and 2 mM glucose) to remove any cations originating from the culture medium. The cells were then resuspended in assay buffer to 4×10^6 cells/mL and 2 mM MnCl2 was added to upregulate VLA4 on the surface of the cells.
Immediately prior to running the assay, we removed the BSA blocking solution from the 96-well plates and washed the wells with 100 μL of assay buffer. We then added to each well 25 μL of test cell adhesion inhibitory compound at 2× the final concentration and 25 μL of the labelled Ramos cells. […] Each concentration of compound was tested in triplicate. The compound and cells are allowed to incubate for 30 minutes at room temperature.
CCC(C)C(NC(=O)C(CC(=O)O)NC(=O)C(CC(C)C)NC(=O)c1ccc2ccccc2n1)C(=O)OC (stereo not drawn) [Compound 56] gave an IC50 of 50 to 10000 nM.
Compound Cc1ccccc1NC(=O)Nc1ccc(CC(=O)N[C@@H](CCC(N)=O)C(=O)N[C@@H](CC(=O)O)C(=O)N[C@H](C(N)=O)[C@@H](C)O)cc1 [Compound 302] has an IC50 of less than 50 nM.
In the case of Cc1ccccc1NC(=O)Nc1ccc(CC(=O)N2CCC[C@H]2C(=O)N[C@@H](CC(=O)O)C(=O)N[C@H](CCC(=O)O)C(N)=O)cc1 [Compound 249], the IC50 is reported as less than 50 nM.
In the case of Cc1ccccc1NC(=O)Nc1ccc(CC(=O)N[C@H](C(=O)N[C@@H](CC(=O)O)C(=O)N[C@H](C(N)=O)[C@@H](C)O)[C@@H](C)O)cc1 [Compound 257], the IC50 is reported as less than 50 nM.
CC(C)[C@H](NC(=O)[C@H](CC(=O)O)NC(=O)C(C)(C)NC(=O)c1cc2ccccc2cn1)C(=O)O [Compound 82] was tested, and the IC50 was greater than 10000 nM.
With Cc1ccccc1NC(=O)Nc1ccc(CC(=O)N[C@@H](CO)C(=O)N[C@@H](CC(=O)O)C(=O)N[C@H](C(N)=O)C(C)C)cc1 [Compound 277] the IC50 was less than 50 nM.
For CSCC[C@H](NC(=O)Cc1ccc(NC(=O)Nc2ccccc2C)cc1)C(=O)N[C@@H](CC(=O)O)C(=O)N[C@H](C(N)=O)[C@@H](C)O [Compound 224], the IC50 was less than 50 nM.
In the case of Cc1ccccc1NC(=O)Nc1ccc(CC(=O)N[C@@H](CC(C)C)C(=O)N[C@@H](CC(=O)O)C(=O)N[C@@H](CCC(=O)O)C(N)=O)cc1 [Compound 234], the IC50 is reported as less than 50 nM.
Work on CSCC[C@H](NC(=O)[C@H](CC(=O)O)NC(=O)[C@H](CC(C)C)NC(=O)Cc1ccc(NC(=O)Nc2ccccc2C)cc1)C(N)=O [Compound 236] yielded an IC50 of less than 50 nM.
In the case of CNC(=O)C(NC(=O)C(CC(=O)O)NC(=O)C(CC(C)C)N(C)C(=O)CCc1ccccc1)C(C)C (stereo not drawn) [Compound 184] (Hydrocinnamoyl-[NMeL]-Asp-Val-NHMe; configuration not given here), the IC50 is reported as greater than 10000 nM.
Cc1ccccc1NC(=O)Nc1ccc(CC(=O)N[C@@H](CCCCNC(=O)CCCCCN)C(=O)N[C@@H](CC(=O)O)C(=O)N[C@H](C(=O)N2CCC[C@H]2C(=O)O)C(C)C)cc1 [Compound 202] ({NH(2-Me-phenyl)-CO}-[X1]K(Ahx)DVP-OH) showed an IC50 of 50 to 10000 nM.
CCC(C)C(NC(=O)C(CC(=O)O)NC(=O)C(CC(C)C)NC(=O)Cc1ccccc1)C(=O)OC (stereo not drawn) [Compound 54] (PhAc-Leu-Asp-Ile-OMe; configuration not given here) showed an IC50 greater than 10000 nM.
Cc1ccccc1NC(=O)Nc1ccc(CC(=O)N[C@H](CC(C)C)C(=O)N[C@@H](CC(=O)O)C(=O)N[C@@H](CC(C)C)C(N)=O)cc1 [Compound 287] showed an IC50 of less than 50 nM.
With COc1cc(CC(=O)NC(CCSC)C(=O)NC(CC(=O)O)C(=O)NC(C(=O)N2CCCC2C(=O)O)C(C)C)ccc1NC(=O)Nc1ccccc1 (stereo not drawn) [Compound 2] ({NHPh-CO}-[X5]MDVP-OH; configuration not given here) the IC50 was less than 50 nM.
Work on Cc1ccccc1NC(=O)Nc1ccc(CC(=O)N[C@@H](CO)C(=O)N[C@@H](CC(=O)O)C(=O)N[C@H](CO)C(N)=O)cc1 [Compound 285] yielded an IC50 of less than 50 nM.
Cc1ccccc1NC(=O)Nc1ccc(CC(=O)N[C@@H](CC(C)C)C(=O)N[C@@H](CC(=O)O)C(=O)N[C@H](CO)C(N)=O)cc1 [Compound 240] gave an IC50 of less than 50 nM.
For CC(C)C[C@H](NC(=O)c1coc2c1C(=O)CCC2)C(=O)N[C@@H](CC(=O)O)C(=O)N[C@H](C(=O)O)C(C)C [Compound 371], the IC50 was 50 to 10000 nM.
Cc1ccccc1NC(=O)Nc1ccc(CC(=O)N[C@@H](CC(C)C)C(=O)N[C@@H](CC(=O)O)C(=O)N[C@H](CC(C)C)C(N)=O)cc1 [Compound 233] gave an IC50 of less than 50 nM.
In the case of Cc1ccccc1NC(=O)Nc1ccc(CC(=O)N[C@H](C(=O)N[C@@H](CCC(=O)O)C(=O)N[C@@H](CC(=O)O)C(N)=O)[C@@H](C)O)cc1 [Compound 314], the IC50 is reported as less than 50 nM.
Cc1ccccc1NC(=O)Nc1ccc(CC(=O)N[C@H](C(=O)N[C@@H](CC(=O)O)C(=O)N[C@@H](CC(=O)O)C(N)=O)[C@@H](C)O)cc1 [Compound 252] was tested, and the IC50 was less than 50 nM.
With Cc1ccccc1NC(=O)Nc1ccc(CC(=O)N2CCC[C@H]2C(=O)N[C@@H](CC(=O)O)C(=O)N[C@H](CC(C)C)C(N)=O)cc1 [Compound 244] the IC50 was less than 50 nM.
Cc1ccccc1NC(=O)Nc1ccc(CC(=O)N[C@@H](CCC(=O)O)C(=O)N[C@@H](CC(=O)O)C(=O)N[C@H](CC(N)=O)C(N)=O)cc1 [Compound 270] showed an IC50 of less than 50 nM.
Cc1ccccc1NC(=O)Nc1ccc(CC(=O)NC(CC(C)C)C(=O)NC(CC(=O)O)C(=O)NC(CO)C(N)=O)cc1 (stereo not drawn) [Compound 296] showed an IC50 of less than 50 nM.
With CC(C)C[C@H](NC(=O)c1csc(-c2cccnc2)n1)C(=O)N[C@@H](CC(=O)O)C(=O)N[C@H](C(=O)O)C(C)C [Compound 375] the IC50 was 50 to 10000 nM.
With CC(C)C[C@H](NC(=O)Cc1cccs1)C(=O)N[C@@H](CC(=O)O)C(=O)N[C@H](C(=O)O)C(C)C [Compound 404] the IC50 was greater than 10000 nM.
In the case of CSCC[C@H](NC(=O)Cc1ccc(NC(=O)Nc2ccccc2C)cc1)C(=O)N[C@@H](CCC(=O)O)C(=O)N[C@H](C(N)=O)C(C)C [Compound 309], the IC50 is reported as less than 50 nM.
With Cc1ccccc1NC(=O)Nc1ccc(CC(=O)N[C@@H](CCC(N)=O)C(=O)N[C@@H](CC(=O)O)C(=O)N[C@@H](Cc2c[nH]c3ccccc23)C(N)=O)cc1 [Compound 306] the IC50 was less than 50 nM.
For CSCC[C@H](NC(=O)Cc1ccc(NC(=O)Nc2ccccc2C)cc1)C(=O)N[C@@H](CCC(=O)O)C(=O)N[C@@H](CC(=O)O)C(N)=O [Compound 308], the IC50 was less than 50 nM.
For Cc1ccccc1NC(=O)Nc1ccc(CC(=O)N[C@@H](CCC(=O)O)C(=O)N[C@@H](CC(=O)O)C(=O)N[C@H](C(N)=O)[C@@H](C)O)cc1 [Compound 268], the IC50 was less than 50 nM.
CC(C)C[C@H](NC(=O)CCCCc1ccccc1)C(=O)N[C@@H](CC(=O)O)C(=O)N[C@H](C(=O)O)C(C)C [Compound 98] was tested, and the IC50 was greater than 10000 nM.
With CC(C)C[C@H](NC(=O)C1C2CC3CC(C2)CC1C3)C(=O)N[C@@H](CC(=O)O)C(=O)N[C@H](C(=O)O)C(C)C (stereo partly drawn) [Compound 398] the IC50 was greater than 10000 nM.
COC(=O)C1CCCN1C(=O)C(NC(=O)C(CC(=O)O)NC(=O)C(CC(C)C)NC(=O)CCc1ccc(O)cc1)C(C)C (stereo not drawn) [Compound 39] showed an IC50 greater than 10000 nM.
With Cc1ccccc1NC(=O)Nc1ccc(CC(=O)N[C@H](C(=O)N[C@@H](CC(=O)O)C(=O)N[C@H](C(N)=O)C(C)C)[C@@H](C)O)cc1 [Compound 254] the IC50 was less than 50 nM.
Cc1ccccc1NC(=O)Nc1ccc(CC(=O)N[C@@H](CCC(N)=O)C(=O)N[C@@H](CC(=O)O)C(=O)N[C@@H](CCC(=O)O)C(N)=O)cc1 [Compound 301] gave an IC50 of less than 50 nM.
Compound Cc1ccccc1NC(=O)Nc1ccc(CC(=O)N[C@H](CC(C)C)C(=O)N[C@@H](CC(=O)O)C(=O)N[C@H](C(N)=O)[C@@H](C)O)cc1 [Compound 291] has an IC50 of less than 50 nM.
With CSCC[C@H](NC(=O)Cc1ccc(NC(=O)Nc2ccccc2C)cc1)C(=O)N[C@@H](CC(=O)O)C(=O)N[C@@H](CC(=O)O)C(N)=O [Compound 219] the IC50 was less than 50 nM.
In the case of Cc1ccccc1NC(=O)Nc1ccc(CC(=O)N[C@H](CC(C)C)C(=O)N[C@@H](CC(=O)O)C(=O)N[C@H](CC(N)=O)C(N)=O)cc1 [Compound 293], the IC50 is reported as less than 50 nM.
Cc1ccccc1NC(=O)Nc1ccc(CC(=O)N2CCC[C@H]2C(=O)N[C@@H](CCC(=O)O)C(=O)N[C@H](C(N)=O)C(C)C)cc1 [Compound 313] showed an IC50 of less than 50 nM.
For Cc1ccccc1NC(=O)Nc1ccc(CC(=O)N2CCC[C@H]2C(=O)N[C@@H](CC(=O)O)C(=O)N[C@H](CC(N)=O)C(N)=O)cc1 [Compound 248], the IC50 was less than 50 nM.
